Molecular target: GST-Bc1-2 (Homo sapiens, UniProt P10415)
Test: Time Resolved-Fluorescence Resonance Energy Transfer (TR-FRET) Bcl-2 binding assay with F-Bak peptide probe
Details: GST-Bcl-2 1 nM, F-Bak probe 100 nM, Tb-anti-GST 1 nM; '<' = below limit of detection; read-out: TR-FRET Bcl-2 Binding Ki

GST-Bc1-2, sequence (P10415 whole entry): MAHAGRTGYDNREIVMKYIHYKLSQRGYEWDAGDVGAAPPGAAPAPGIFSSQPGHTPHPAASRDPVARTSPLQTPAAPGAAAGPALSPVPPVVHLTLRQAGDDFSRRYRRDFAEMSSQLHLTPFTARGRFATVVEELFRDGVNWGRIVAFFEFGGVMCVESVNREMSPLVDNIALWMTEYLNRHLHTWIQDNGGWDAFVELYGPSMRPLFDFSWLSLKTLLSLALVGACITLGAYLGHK

| Compound | Ki [nM] |
| --- | --- |
| O=C(NS(=O)(=O)c1ccc(NCC2CCOCC2)c([N+](=O)[O-])c1)c1ccc(N2CCN(CC3=C(c4ccc(Cl)cc4)CCC(CF)(CF)C3)CC2)cc1Oc1cnc2[nH]ccc2c1 [Example 353, 4-(4-{[2-(4-chlorophenyl)-5,5-bis(fluoromethyl)cyclohex-1-en-1-yl]methyl}piperazin-1-yl)-N-({3-nitro-4-[(tetrahydro-2H-pyran-4-ylmethyl)amino]phenyl}sulfonyl)-2-(1H-pyrrolo[2,3-b]pyridin-5-yloxy)benzamide] | < 0.01 |
| COCCNc1ccc(S(=O)(=O)NC(=O)c2ccc(N3CCN(CC4=C(c5ccc(Cl)cc5)CC(C)(C)CC4)CC3)cc2Oc2ccc3[nH]ccc3c2)cc1S(=O)(=O)C(F)(F)F [Example 93, 4-(4-{[2-(4-chlorophenyl)-4,4-dimethylcyclohex-1-en-1-yl]methyl}piperazin-1-yl)-2-(1H-indol-5-yloxy)-N-({4-[(2-methoxyethyl)amino]-3-[(trifluoromethyl)sulfonyl]phenyl}sulfonyl)benzamide] | 3.46 |
| CC1(C)CCC(CN2CCN(c3ccc(C(=O)NS(=O)(=O)c4cc(F)c(NCC5CCOCC5)c(Cl)c4)c(Oc4cnc5[nH]ccc5c4)c3)CC2)=C(c2ccc(Cl)cc2)C1 [Example 86, N-({3-chloro-5-fluoro-4-[(tetrahydro-2H-pyran-4-ylmethyl)amino]phenyl}sulfonyl)-4-(4-{[2-(4-chlorophenyl)-4,4-dimethylcyclohex-1-en-1-yl]methyl}piperazin-1-yl)-2-(1H-pyrrolo[2,3-b]pyridin-5-yloxy)benzamide] | 0.498 |
| CN1CC(Nc2ccc(S(=O)(=O)NC(=O)c3ccc(N4CCN(CC5=C(c6ccc(Cl)cc6)CC(C)(C)CC5)CC4)cc3Oc3cnc4[nH]ccc4c3)cc2[N+](=O)[O-])CC1=O (centres unmarked) [Example 202, 4-(4-{[2-(4-chlorophenyl)-4,4-dimethylcyclohex-1-en-1-yl]methyl}piperazin-1-yl)-N-({4-[(1-methyl-5-oxopyrrolidin-3-yl)amino]-3-nitrophenyl}sulfonyl)-2-(1H-pyrrolo[2,3-b]pyridin-5-yloxy)benzamide] | < 0.01 |
| CC1(C)CCC(CN2CCN(c3ccc(C(=O)NS(=O)(=O)c4ccc(NCC5COCCN5C5CCOC5)c([N+](=O)[O-])c4)c(Oc4cnc5[nH]ccc5c4)c3)CC2)=C(c2ccc(Cl)cc2)C1 (centres unmarked) [Example 171, 4-(4-{[2-(4-chlorophenyl)-4,4-dimethylcyclohex-1-en-1-yl]methyl}piperazin-1-yl)-N-[(3-nitro-4-{[(4-tetrahydrofuran-3-ylmorpholin-3-yl)methyl]amino}phenyl)sulfonyl]-2-(1H-pyrrolo[2,3-b]pyridin-5-yloxy)benzamide] | < 0.01 |
| CC1(C)CCC(CN2CCN(c3ccc(C(=O)NS(=O)(=O)c4ccc(N[C@H]5CC[C@H](N(C6CC6)C6CC6)CC5)c([N+](=O)[O-])c4)c(Oc4cnc5[nH]ccc5c4)c3)CC2)=C(c2ccc(Cl)cc2)C1 [Example 100, Trans-4-(4-{[2-(4-chlorophenyl)-4,4-dimethylcyclohex-1-en-1-yl]methyl}piperazin-1-yl)-N-[(4-{[4-(dicyclopropylamino)cyclohexyl]amino}-3-nitrophenyl)sulfonyl]-2-(1H-pyrrolo[2,3-b]pyridin-5-yloxy)benzamide] | < 0.01 |
| CC1(C)CC(c2ccc(Cl)cc2)=C(CN2CCN(c3ccc(C(=O)NS(=O)(=O)c4cnc(OCC5CCOCC5)c(Cl)c4)c(Oc4cnc5[nH]ccc5c4)c3)CC2)CO1 [Example 41, 4-(4-{[4-(4-chlorophenyl)-6,6-dimethyl-5,6-dihydro-2H-pyran-3-yl]methyl}piperazin-1-yl)-N-{[5-chloro-6-(tetrahydro-2H-pyran-4-ylmethoxy)pyridin-3-yl]sulfonyl}-2-(1H-pyrrolo[2,3-b]pyridin-5-yloxy)benzamide] | < 0.01 |
| COCCNc1ccc(S(=O)(=O)NC(=O)c2ccc(N3CCN(CC4=C(c5ccc(Cl)cc5)CC(C)(C)CC4)CC3)cc2Oc2cnc3[nH]ccc3c2)cc1S(=O)(=O)C(F)(F)F [Example 16, 4-(4-{[2-(4-chlorophenyl)-4,4-dimethylcyclohex-1-en-1-yl]methyl}piperazin-1-yl)-N-({4-[(2-methoxyethyl)amino]-3-[(trifluoromethyl)sulfonyl]phenyl}sulfonyl)-2-(1H-pyrrolo[2,3-b]pyridin-5-yloxy)benzamide] | 0.219 |
| CC1(C)CCC(CN2CCN(c3ccc(C(=O)NS(=O)(=O)c4ccc(NCc5ccc(OC(F)F)cc5)c([N+](=O)[O-])c4)c(Oc4cnc5[nH]ccc5c4)c3)CC2)=C(c2ccc(Cl)cc2)C1 [Example 177, 4-(4-{[2-(4-chlorophenyl)-4,4-dimethylcyclohex-1-en-1-yl]methyl}piperazin-1-yl)-N-[(4-{[4-(difluoromethoxy)benzyl]amino}-3-nitrophenyl)sulfonyl]-2-(1H-pyrrolo[2,3-b]pyridin-5-yloxy)benzamide] | 0.111 |
| CC1(C)CCC(CN2CCN(c3ccc(C(=O)NS(=O)(=O)c4ccc(NC[C@H]5CCN(C6COC6)C5)c([N+](=O)[O-])c4)c(Oc4cnc5[nH]ccc5c4)c3)CC2)=C(c2ccc(Cl)cc2)C1 [Example 195, 4-(4-{[2-(4-chlorophenyl)-4,4-dimethylcyclohex-1-en-1-yl]methyl}piperazin-1-yl)-N-{[3-nitro-4-({[(3R)-1-oxetan-3-ylpyrrolidin-3-yl]methyl}amino)phenyl]sulfonyl}-2-(1H-pyrrolo[2,3-b]pyridin-5-yloxy)benzamide] | < 0.01 |
| CC1(C)CCC(CN2CCN(c3ccc(C(=O)NS(=O)(=O)c4ccc(NC[C@H]5CCN(C6CCOCC6)C5)c([N+](=O)[O-])c4)c(Oc4cnc5[nH]ccc5c4)c3)CC2)=C(c2ccc(Cl)cc2)C1 [Example 118, 4-(4-{[2-(4-chlorophenyl)-4,4-dimethylcyclohex-1-en-1-yl]methyl}piperazin-1-yl)-N-{[3-nitro-4-({[(3R)-1-tetrahydro-2H-pyran-4-ylpyrrolidin-3-yl]methyl}amino)phenyl]sulfonyl}-2-(1H-pyrrolo[2,3-b]pyridin-5-yloxy)benzamide] | < 0.01 |
| CN(C)CC(=O)N1CCC(F)(COc2ncc(S(=O)(=O)NC(=O)c3ccc(N4CCN(CC5=C(c6ccc(Cl)cc6)CC(C)(C)CC5)CC4)cc3Oc3cnc4[nH]ccc4c3)cc2Cl)CC1 [Example 270, N-[(5-chloro-6-{[1-(N,N-dimethylglycyl)-4-fluoropiperidin-4-yl]methoxy}pyridin-3-yl)sulfonyl]-4-(4-{[2-(4-chlorophenyl)-4,4-dimethylcyclohex-1-en-1-yl]methyl}piperazin-1-yl)-2-(1H-pyrrolo[2,3-b]pyridin-5-yloxy)benzamide] | < 0.01 |
| CC1(C)CCC(CN2CCN(c3ccc(C(=O)NS(=O)(=O)c4cnc(OCC5(F)CCOCC5)c(F)c4)c(Oc4cnc5[nH]ccc5c4)c3)CC2)=C(c2ccc(Cl)cc2)C1 [Example 248, 4-(4-{[2-(4-chlorophenyl)-4,4-dimethylcyclohex-1-en-1-yl]methyl}piperazin-1-yl)-N-({5-fluoro-6-[(4-fluorotetrahydro-2H-pyran-4-yl)methoxy]pyridin-3-yl}sulfonyl)-2-(1H-pyrrolo[2,3-b]pyridin-5-yloxy)benzamide] | 0.029 |
| COCCOCCS(=O)(=O)c1ccc(S(=O)(=O)NC(=O)c2ccc(N3CCN(CC4=C(c5ccc(Cl)cc5)CC(C)(C)CC4)CC3)cc2Oc2cnc3[nH]ccc3c2)cc1Cl [Example 58, N-[(3-chloro-4-{[2-(2-methoxyethoxy)ethyl]sulfonyl}phenyl)sulfonyl]-4-(4-{[2-(4-chlorophenyl)-4,4-dimethylcyclohex-1-en-1-yl]methyl}piperazin-1-yl)-2-(1H-pyrrolo[2,3-b]pyridin-5-yloxy)benzamide] | < 0.01 |
| CC1(C)CCC(CN2CCN(c3ccc(C(=O)NS(=O)(=O)c4ccc(OCC5CCN(C(CF)CF)CC5)c([N+](=O)[O-])c4)c(Oc4cnc5[nH]ccc5c4)c3)CC2)=C(c2ccc(Cl)cc2)C1 [Example 129, 4-(4-{[2-(4-chlorophenyl)-4,4-dimethylcyclohex-1-en-1-yl]methyl}piperazin-1-yl)-N-{[4-({1-[2-fluoro-1-(fluoromethyl)ethyl]piperidin-4-yl}methoxy)-3-nitrophenyl]sulfonyl}-2-(1H-pyrrolo[2,3-b]pyridin-5-yloxy)benzamide] | 0.002 |
| CC1(C)CCC(CN2CCN(c3ccc(C(=O)NS(=O)(=O)c4ccc(N[C@H]5CC[C@@H](NC6CC6)CC5)c([N+](=O)[O-])c4)c(Oc4cnc5[nH]ccc5c4)c3)CC2)=C(c2ccc(Cl)cc2)C1 [Example 122, Cis-4-(4-{[2-(4-chlorophenyl)-4,4-dimethylcyclohex-1-en-1-yl]methyl}piperazin-1-yl)-N-[(4-{[4-(cyclopropylamino)cyclohexyl]amino}-3-nitrophenyl)sulfonyl]-2-(1H-pyrrolo[2,3-b]pyridin-5-yloxy)benzamide] | < 0.01 |
| O=C(NS(=O)(=O)c1ccc(NCC2CCOCC2)c([N+](=O)[O-])c1)c1ccc(N2CCN(CC3=C(c4ccc(Cl)cc4)CC4(CC3)CC4)CC2)cc1Oc1cnc2[nH]ccc2c1 [Example 328, 4-(4-{[5-(4-chlorophenyl)spiro[2.5]oct-5-en-6-yl]methyl}piperazin-1-yl)-N-({3-nitro-4-[(tetrahydro-2H-pyran-4-ylmethyl)amino]phenyl}sulfonyl)-2-(1H-pyrrolo[2,3-b]pyridin-5-yloxy)benzamide] | < 0.01 |
| CC1(C)CCC(CN2CCN(c3ccc(C(=O)NS(=O)(=O)c4ccc(NCC5CCOCC5)c(Cl)c4)c(Oc4cnc5[nH]ccc5c4)c3)CC2)=C(c2ccc(Cl)cc2)C1 [Example 306, 4-(4-{[2-(4-chlorophenyl)-4,4-dimethylcyclohex-1-en-1-yl]methyl}piperazin-1-yl)-N-({3-chloro-4-[(tetrahydro-2H-pyran-4-ylmethyl)amino]phenyl}sulfonyl)-2-(1H-pyrrolo[2,3-b]pyridin-5-yloxy)benzamide] | 2.07 |

Same assay, conditions: Table 5, direct comparison Z=N vs Z=C analogs; read-out: Bcl-2 FRET ki

| Compound | Ki [nM] |
| --- | --- |
| COCCNc1ccc(S(=O)(=O)NC(=O)c2ccc(N3CCN(CC4=C(c5ccc(Cl)cc5)CC(C)(C)CC4)CC3)cc2Oc2cnc3[nH]ccc3c2)cc1S(=O)(=O)C(F)(F)F [Example 16, 4-(4-{[2-(4-chlorophenyl)-4,4-dimethylcyclohex-1-en-1-yl]methyl}piperazin-1-yl)-N-({4-[(2-methoxyethyl)amino]-3-[(trifluoromethyl)sulfonyl]phenyl}sulfonyl)-2-(1H-pyrrolo[2,3-b]pyridin-5-yloxy)benzamide] | 0.219 |

Same assay, conditions: read-out: Bcl-2 FRET ki

| Compound | Ki [nM] |
| --- | --- |
| COCCNc1ccc(S(=O)(=O)NC(=O)c2ccc(N3CCN(CC4=C(c5ccc(Cl)cc5)CC(C)(C)CC4)CC3)cc2Oc2ccc3[nH]ccc3c2)cc1S(=O)(=O)C(F)(F)F [Example 93, 4-(4-{[2-(4-chlorophenyl)-4,4-dimethylcyclohex-1-en-1-yl]methyl}piperazin-1-yl)-2-(1H-indol-5-yloxy)-N-({4-[(2-methoxyethyl)amino]-3-[(trifluoromethyl)sulfonyl]phenyl}sulfonyl)benzamide] | 35 |
